# Source: patent publication US20200368205A1, “METHODS AND COMBINATION THERAPY TO TREAT CANCER” (ARRAY BIOPHARMA INC., priority 2018, published 2020)
# Assays:
# melanoma cell lines = experiment: MHC class I expression across the panel of eight melanoma cell lines; format: cell-based, human
# Method: (§1) The goal of this study was to measure the effects of binimetinib on cell surface MHC class I expression in various melanoma cell lines. In this study, eight melanoma cell lines were evaluated: MEL-JUSO (NRAS Q61L mutation), IPC-298 (NRAS Q61L mutation), A375 (BRAF V600E, homozygous mutation), HS936.T (NRAS Q61K mutation and BRAF N581K mutation), MM485 (NRAS Q61R mutation), SK-MEL-2 (NRAS Q61R mutation), MM415 (NRAS Q61L mutation), Malme-3M (BRAF V600E, heterozygous mutation). The cells lines were seeded into flat bottom 96-well tissue culture plates at a density of 5000 cells per well and allowed to adhere overnight. The following day cells were treated with vehicle control (0.25% DMSO) or varying dilutions of Binimetinib (0.7 nM-25000 nM) for 1 hour. Cells were then treated with vehicle control or 100 ng/ml IFNgamma (R&D systems) for 72 hours. Cells were washed, trypsinized, and stained with Alexa Fluor® 647 anti-human HLA-A,B,C antibody (W6/32, eBioscience) and analyzed on a BD FACSCanto II flow cytometer. An IFNg titration and time course were performed for assay optimization. Maximal induction of MHC class I expression was seen ˜100 ng/mL of IFNγ (see, e.g., FIGS. 1 and 2).
# A375 (BRAF V600E) cells = experiment: MHC class I cell surface expression, flow cytometry; format: cell-based, human; settings: 72 hours
# Method: as §1
# [1] = test system: HS936.T (NRAS Q61K, BRAF N581K) cells; experiment: as above; format: cell-based, human; settings: 72 hours
# Method: as §1
# IPC298 (NRAS Q61L) cells = experiment: as above; format: cell-based, human; settings: 72 hours
# Method: as §1
# [2] = test system: MELJUSO (NRAS Q61L) cells; experiment: as above; format: cell-based, human; settings: for Maximal Fold Increase in MHC Class I Expression: MELJUSO (NRAS Q61L), 72 hours
# Method: as §1
# MM415 (NRAS Q61L) cells = experiment: as above; format: cell-based, human; settings: 72 hours
# Method: as §1
# MM485 (NRAS Q61R) cells = experiment: as above; format: cell-based, human; settings: 72 hours
# Method: as §1
# [3] = test system: Malme-3M (BRAF V600E) cells; experiment: as above; format: cell-based, human; settings: 72 hours
# Method: as §1
# [4] = test system: SKMEL-2 (NRAS Q61R) cells; experiment: as above; format: cell-based, human; settings: 72 hours
# Method: as §1
# [5] = test system: KRas mutant CT26 syngeneic tumors; experiment: Growth of KRas mutant CT26 murine colon syngeneic tumors; format: in vivo; settings: for Cures (day 61): animals with no palpable tumor at study end
# Method: (§2) 1% CMC/0.5% Tween-80 (CMCT) was prepared by adding 960 mL of distilled water to a 1000 mL Pyrex® glass bottle with a stir bar in the bottom, and was used as the oral vehicle. The water was warmed to 50-60° C. then 5 mL Tween® 80 (polyoxyethylenesorbitan monooleate, Sigma P2287, batch #054K0154) and 15.6 mL benzyl alcohol (Sigma 402834, Batch #00296PK) added. Carboxymethylcellulose (5 g, CMC, low viscosity, Sigma C5678, Batch #033K0008) was added slowly, over one hour. The solution was stirred until the CMC dissolved and the solution was clear. 30 mg/kg MEK162 (Binimetinib, 100% active) was prepared as a white, homogeneous suspension in CMCT. MEK162 was administered in 10 mL/kg and dosed at 30 mg/kg (3.0 mg/mL) by oral gavage. To prepare, dry test compound (90 mg) was weighed and 30 mL CMCT added. Dose suspension was sonicated until a fine suspension was achieved (˜15 min). Final dose suspension was stored at 4° C. during live phase and sonicated to resuspend prior to dose administration. Dose suspension was prepared every 4-5 days or as needed. 100 μg αPD-1 RMP1-14, Rat IgG2a isotype (BioXCell cat.no. BP0146, lot #5792×2/1015)−7.12 mg/mL stock concentration. RMP1-14 was prepared by dilution of 0.843 stock solution with 5.157 mL sterile saline for injection. The antibody was administered at 100 μg/animal (100 μL of a 1 mg/mL dose solution) by intraperitoneal injection.
# (§3) Male BALB/c mice from Charles River (Wilmington, Mass.) were obtained at 6-8 weeks of age and housed in groups of 5. Following a two week acclimation period, a suspension of 1×10^5 cells in a volume of 100 μL saline was implanted subcutaneously on the right flank of the animal near the axillary region. Animals were then randomly assigned to treatment groups. Treatment was initiated on day 4 after CT26 tumor cell inoculation to allow for a sufficient treatment window. MEK162 was administered once daily (QD) for 14 consecutive days by oral gavage (PO) at 30 mg/kg and anti-PD1 antibody was administered twice weekly by intraperitoneal injection (IP) (Table 4).
# (§4) The combination was evaluated as concomitant administration or sequential where MEK162 treatment was initiated at the time that tumor resistance from anti-PD1 treatment emerged. For the sequential treatment group, animals were enrolled in MEK162 treatment when tumors reached 350-400 mm^3 after anti-PD1 antibody therapy was initiated.
# Animals were monitored for tumor growth and body weight 2-3 times per week based on outgrowth kinetics. Tumor diameter was measured with digital calipers, and the tumor volume in mm^3 was calculated by the formula: Volume=((width)^2×length)/2. […] Animals were removed from study if found moribund or if tumor volume exceeded 1400 mm^3. At that time, tumor tissue was harvested and frozen for later analysis of T-cell clonality by immune sequencing (Adaptive Biotech, San Diego, Calif.). Food, water, temperature and humidity were according to Pharmacology Testing Facility performance standards (SOP's) which are in accordance with the 1996 Guide for the Care and Use of Laboratory Animals (NRC) and AAALAC-International.
# The murine CT26 cell line (a.k.a. Colon 26 or Colon Tumor #26) was developed in 1975 by exposing BALB/c mice to N-nitroso-N-methylurethane-(NNMU) (Corbett et al., 1975). The undifferentiated colon carcinoma cell line with fibroblast morphology was isolated from BALB/c mice. Extensive genomics, immune phenotyping and therapeutic background are available on this cell line (information summarized from Bhadury et al., 2013, Castle et al., 2014). The cell line is reported to harbor a KRas G12D mutation and the in-house cell line was sequenced and found to match the reported mutation (BGI, Cambridge, Mass.). Literature reports expression of MHC class I but not II and a mutational load of 1688 non-synonymous point mutations; 154 are both in expressed genes and in peptides predicted to bind MHC. […]
# B16F10 tumors = experiment: Growth of B16F10 melanoma tumors; format: in vivo
# Method: [The procedure below names another cell line; the source lists this cell line under the same test.] as §2, §3, §4
# Animals were monitored for tumor growth and body weight 2-3 times per week based on outgrowth kinetics. Tumor diameter was measured with digital calipers, and the tumor volume in mm^3 was calculated by the formula: Volume=((width)^2×length)/2. TGI was calculated on day 15. Animals were removed from study if found moribund or if tumor volume exceeded 1400 mm^3. At that time, tumor tissue was harvested and frozen for later analysis of T-cell clonality by immune sequencing (Adaptive Biotech, San Diego, Calif.). […]
# The mean values for tumor volume and body weight by study day for each experimental group were plotted including error bars for the standard error of the mean. % Tumor Growth Inhibition (% TGI): % TGI=100(1−Wt/Wc); Wt is the mean tumor volume of the treated group on day X; We is the mean tumor volume of controls on day X, where X is the last day that the control group is available in its entirety. […] Cures: Animals with no palpable tumor at the end of the study were scored as cures. […]
# Cloudman S91 tumors = experiment: Growth of Cloudman S91 melanoma tumors; format: in vivo
# RENCA tumors = experiment: Growth of RENCA renal carcinoma tumors in retired mice; format: in vivo
# Method: as §2, with “The water was warmed to 50-60° C. then 5 mL Tween® 80 (polyoxyethylenesorbitan monooleate, Sigma P2287, batch #054K0154) and 15.6 mL benzyl alcohol (Sigma 402834, Batch #00296PK) added.” left out, “100 μg αPD-1 RMP1-14, Rat IgG2a isotype (BioXCell cat.no. BP0146, lot #5792×2/1015)−7.12 mg/mL stock concentration. RMP1-14 was prepared by dilution of 0.843 stock solution with 5.157 mL sterile saline for injection.” left out
# as §3, §4
# Animals were monitored for tumor growth and body weight 2-3 times per week based on outgrowth kinetics. Tumor diameter was measured with digital calipers, and the tumor volume in mm^3 was calculated by the formula: Volume=((width)^2×length)/2. TGI was calculated on day 15. Animals were removed from study if found moribund or if tumor volume exceeded 1400 mm^3. At that time, tumor tissue was harvested and frozen for later analysis of T-cell clonality by immune sequencing (Adaptive Biotech, San Diego, Calif.).
# Survival defined as morbidity, mortality or tumor size exceeding 1400 mm3. […] Cures: Animals with no palpable tumor at the end of the study were scored as cures. Maximum % Body Weight Loss (% BWL): % BWL=100(1−BWt/BW0); BW0 is group mean body weight at study start and BWt is group mean or median body weight on day where maximal body weight loss is observed. Tx-Related Deaths: Death occurring during live phase specifically due to drug administration and not attributable to other causes (e.g. gavage trauma, tumor-related morbidity, etc.)
# For mice that were injected subcutaneously with RENCA cells, retired female breeders were used (23 weeks old). 200 μg of αPD-1 was administered on days 1, 4, 8 and 11.
# [6] = Binimetinib steady state exposure quoted in figure legends; settings: total
compound,measurement,setting,value
IFNγ: IFNgamma (R&D systems) used to induce MHC class I expression,IFNγ concentration giving maximal induction of MHC class I expression,"melanoma cell lines; IFNg titration, 72-hour treatment, FIGS. 1 and 2 (A375, SKMEL-2)",~100 ng/mL
"Cn1cnc2c(F)c(Nc3ccc(Br)cc3F)c(C(=O)NOCCO)cc21 [Binimetinib, 6-(4-bromo-2-fluorophenylamino)-7-fluoro-3-methyl-3H-benzoimidazole-5-carboxylic acid (2-hydroxyethoxy)-amide]",Maximal Fold Increase in MHC Class I Expression,A375 (BRAF V600E) cells; +IFNg 100 ng/ml,4 fold
same,Maximal Fold Increase in MHC Class I Expression,A375 (BRAF V600E) cells; −IFNg,2 fold
same,Maximal Fold Increase in MHC Class I Expression,[1]; +IFNg 100 ng/ml,2 fold
same,Maximal Fold Increase in MHC Class I Expression,[1]; −IFNg,1.5 fold
same,Maximal Fold Increase in MHC Class I Expression,IPC298 (NRAS Q61L) cells; +IFNg 100 ng/ml,3 fold
same,Maximal Fold Increase in MHC Class I Expression,IPC298 (NRAS Q61L) cells; −IFNg,2 fold
same,increase in MHC class I expression,"[2]; MELJUSO (NRAS Q61L) cells, binimetinib alone, FIG. 5A",2.5 fold
same,enhancement of IFNγ-induced MHC class I expression,"[2]; MELJUSO (NRAS Q61L) cells, in the presence of 100 ng/mL IFNg",4-5 fold
same,Maximal Fold Increase in MHC Class I Expression,[2]; +IFNg 100 ng/ml,4 fold
same,Maximal Fold Increase in MHC Class I Expression,[2]; −IFNg,3 fold
same,Maximal Fold Increase in MHC Class I Expression,MM415 (NRAS Q61L) cells; +IFNg 100 ng/ml,2 fold
same,Maximal Fold Increase in MHC Class I Expression,MM415 (NRAS Q61L) cells; −IFNg,0 fold
same,Maximal Fold Increase in MHC Class I Expression,MM485 (NRAS Q61R) cells; +IFNg 100 ng/ml,2 fold
same,Maximal Fold Increase in MHC Class I Expression,MM485 (NRAS Q61R) cells; −IFNg,2 fold
same,Maximal Fold Increase in MHC Class I Expression,[3]; +IFNg 100 ng/ml,1.5 fold
same,Maximal Fold Increase in MHC Class I Expression,[3]; −IFNg,0 fold
same,Maximal Fold Increase in MHC Class I Expression,[4]; +IFNg 100 ng/ml,1.5 fold
same,Maximal Fold Increase in MHC Class I Expression,[4]; −IFNg,2 fold
same,melanoma cell lines with increased MHC class I cell surface expression,"melanoma cell lines; binimetinib alone, eight melanoma cell lines",6 of 8
same,fold increase in MHC class I cell surface expression,"melanoma cell lines; binimetinib alone, in 6 of 8 melanoma cell lines",1.5-3 fold
same,fold increase of IFNg-induced MHC class I,"melanoma cell lines; with IFNg, all tested cell lines",1.5-4 fold
same,Deaths,[5]; BALB/c mice,0/10
same,% TGI (Day 13),"[5]; BALB/c mice, MEK162 30 mg/kg PO QD x14, anti-PD1 100 μg IP D 1, 4, 8, 11",43%
same,% TGI (Day 13),"[5]; BALB/c mice, MEK162 30 mg/kg PO QD x14, anti-PD1 100 μg IP D 1, 4, 8, 11, 30 mg/kg",43%
same,Max % BWL,"[5]; BALB/c mice, maximum body weight loss",0.6%
same,Median Survival,"[5]; BALB/c mice, vehicle 18 days",26 days
same,Cures (day 61),[5],0/10
same,Cures (day 61),[5]; listed as MEK162,no cures
same,Cures (day 61),B16F10 tumors; B16F10 tumors,0/10
same,Deaths,B16F10 tumors; B16F10 tumors,2/10
same,% TGI (day 13),"B16F10 tumors; B16F10 tumors, C57BL/6 mice, binimetinib 30 mg/kg, anti-PD-1 100 μg",59.0%
same,Median Survival,"B16F10 tumors; B16F10 tumors, vehicle 14",19
same,Max % BWL,"B16F10 tumors; mouse, in vivo",0.8%
same,Cures (day 44),Cloudman S91 tumors,0/10
same,Deaths,Cloudman S91 tumors,0/10
same,% TGI (day 8),"Cloudman S91 tumors; DBA/2 mice, binimetinib 30 mg/kg, anti-PD-1 100 μg",−17%
same,Max % BWL,Cloudman S91 tumors; vehicle 12.4,4.8%
same,Median Survival,Cloudman S91 tumors; vehicle 13,11
same,Cures (day 43),RENCA tumors; retired mice,0/12
same,% TGI (day 18),"RENCA tumors; retired mice (23 weeks of age), binimetinib 30 mg/kg, αPD-1 200 μg days 1, 4, 8 and 11",25%
same,Deaths,"RENCA tumors; retired mice, vehicle 9/12",10/12
same,Maximum % BWL,"RENCA tumors; retired mice, vehicle 15.1",23.3%
same,Median Survival,"RENCA tumors; retired mice, vehicle 21",24
same,Trough (day 15),[6],310 nM
